What was measured:
[1] = tested on: multiple sclerosis (MS); details: daily subcutaneous injections, 20 mg/injection; cited from earlier work
[2] = tested on: Transgenic mice overexpressing human Cu/Zn-SOD G93A mutations; assay: Experimental model for amyotrophic lateral sclerosis (SOD1 G93A transgenic mice); format: in vivo; details: glatiramer acetate at both dosages; riluzole 30 mg/kg per day; during the course of treatment
Procedure: Transgenic mice overexpressing human Cu/Zn-SOD G93A mutations ((B6SJL-TgN (SOD1-G93A) 1 Gur) and non-transgenic B6/SJL mice are purchased from Jackson Laboratories (Bar Harbor, Me., USA). The second generation of G1H mice are used.
A group of 15 mice serve as controls.
The drugs are administered in drinking water starting at 60 days of age.
The clinical condition of the mice is monitored daily starting at 40 days. The onset of clinical signs is scored by examining the mice for tremors and/or shaking of the limbs, the position of one or both hind limbs (hanging rather than splaying out) when the mice are suspended in the air by their tail. The age of clinical onset was determined by the age (days) at which loss of splay or tremors of hind limbs is observed. The loss of righting reflex determines the end stage of the disease. The mice are sacrificed if they could not right themselves within 30 seconds when placed on either side on a flat surface.
Mice are observed daily (including weekends) and weighed weekly. Motor performance is assessed from 40 days of age using the rotarod apparatus to measure the night activity of the mice from 8 p.m.-8 a.m.
Mice were perfused transcardially with 4% paraformaldehyde/0.9% NaCl solution, brains and whole spinal cord were dissected out, frozen in liquid nitrogen and cut in transverse sections of 20 μm on a sliding microtome. […]

[3] = tested on: human patients afflicted with an unspecified form of multiple sclerosis; details: administered alone; data of WO 00/74676; cited from earlier work

Row | Molecule | appearance of "black holes" [1] | appearance of new lesions by magnetic resonance imaging (MRI) [1] | progression of disability [1] | relapse rates [1] | running wheel activity (motor activity) [2] | EDSS score [3] | accumulation of hypointense lesions [3]
1 | L-glutamic acid polymer with L-alanine, L-lysine and L-tyrosine, acetate (salt) [glatiramer acetate] | reduce | reduce | reduce | reduce | more active during the course of treatment and maintain their motor activity longer than controls |  | 
2 | Nc1nc2ccc(OC(F)(F)F)cc2s1 [riluzole, 2-amino-6-trifluoromethoxy benzothiazole] |  |  |  |  | more active during the course of treatment and maintain their motor activity longer than controls | No effect | showed a trend toward reduction

Source: patent publication US20070244056A1 (priority 2004, published 2007)
